Results from patent US20260317314A1, “NITROGEN-CONTAINING HETEROCYCLIC COMPOUND AND USE THEREOF” (JIANGSU DEYUAN PHARMACEUTICAL CO.,LTD., priority 2023, published 2026).
Blank lines part the entries; values can stand above or below the molecule they belong to.

Legend:
[1] = In vivo pharmacokinetics study in rats; set-up: species or system SD rat; conditions: male SD rats, oral 2 mg/kg; for AUC(0-t) at 24 h: read-out: AUC0-24 h
[2] = Plasma protein binding rate test, human (equilibrium dialysis); assay type: in vitro ADME; conditions: 37° C.
Description: (§1) The sample was thoroughly mixed.

[3] = In vivo pharmacokinetic study in cynomolgus monkeys; set-up: species or system cynomolgus monkey; conditions: male cynomolgus monkeys
[4] = In vitro liver microsome metabolic stability study; assay type: in vitro ADME; conditions: human liver microsomes 0.5 mg/mL, compound 1 μM, 37° C., up to 60 minutes; read-out: Intrinsic hepatic clearance CLint(liver)
Description: Stock solution: 10 mM in DMSO.
Only 54 μL of microsomal working solution, 6 μL of NADPH regeneration system working solution, and 180 μL of stop solution were added to the blank plate.
LC-MS/MS analysis was performed.

[5] = Plasma protein binding rate test, cynomolgus monkey (equilibrium dialysis); assay type: in vitro ADME; conditions: 37° C., read-out: Plasma protein binding rate (%) in cynomolgus monkeys (converted)
Description: as §1

[6] = Permeability test in MDR1-MDCKII monolayer cell model; assay type: in vitro ADME; conditions: dog; for efflux ratio at 2.5 h, 2 µM: MDCK-MDR1, pH 7.4, ER=Papp(BA)/Papp(AB); for Papp A→B at 2.5 h, 2 µM: MDCK-MDR1, pH 7.4, pH 7.40, 2.5 hours, 37±1° C., read-out: Apparent permeability coefficient (Papp (AB))
Description: Experimental objective: The permeability and efflux ratio of the compound of the present disclosure were determined using the MDR1-MDCKII monolayer cell model to assess its membrane permeability and potential for P-gp-mediated efflux transport.
Experimental protocol: MDR1-MDCKII cells (obtained from the Netherlands Cancer Institute) were seeded in 96-well plates (obtained from Corning) at a cell density of 3.33×10^5 cells/mL and cultured for 4 to 7 days to form confluent cell monolayers. Hank's balanced salt solution containing 10 mM HEPES (pH 7.40) was used as the transport buffer. The test compound was evaluated for bidirectional transport at a concentration of 2 μM, with the DMSO concentration in the incubation system maintained below 1%. After adding the samples, the cell plate was incubated at 37±1° C., 5% CO2, and saturated humidity for 2.5 hours. All samples were quantitatively analyzed using the LC-MS/MS method. The apparent permeability coefficient (Papp, cm/s) and efflux ratio (ER) were calculated using the following formula. Apparent permeability coefficient (Papp, cm/s) was calculated using the following formula: Papp=(dCr/dt)×Vr/(A×C0). Herein, dCr/dt represents the cumulative concentration of the compound at the receiving end per unit time (μM/s); Vr is the volume of the solution at the receiving end (with solution volumes at the apical and basolateral ends being 0.075 mL and 0.250 mL, respectively); A is the relative surface area of the cell monolayer (0.143 cm^2); C0 is the initial concentration of the test substance at the dosing end (μM) or the peak area ratio of the reference substance. The efflux ratio was calculated using the following formula: ER=Papp(BA)/Papp(AB).

[7] = Plasma protein binding rate test, SD rat (equilibrium dialysis); assay type: in vitro ADME; conditions: 37° C., read-out: Plasma protein binding rate (%) in SD rats (converted)
Description: as §1

plasma protein [8] = test: Plasma protein binding rate test, human (equilibrium dialysis); assay type: in vitro ADME; conditions: 37° C., 4 hours
Description: as §1

plasma protein [9] = test: Plasma protein binding rate test, cynomolgus monkey (equilibrium dialysis); assay type: in vitro ADME; conditions: 37° C., 4 hours
Description: as §1

human CYP11B2 = target: T1, human CYP11B2 (Homo sapiens, UniProt P19099); test: In vitro activity assay of monoclonal cells overexpressing human CYP11B2; assay type: cell-based; conditions: G402 cells overexpressing human CYP11B2; substrate 11-deoxycorticosterone; 16 hours; aldosterone by LCMS/MS
T1 construct: expressed in transfected cells; host or cells: human renal leiomyoma G402 cell line (monoclonal cells overexpressing human CYP11B2)
T1 sequence (P19099 25-503): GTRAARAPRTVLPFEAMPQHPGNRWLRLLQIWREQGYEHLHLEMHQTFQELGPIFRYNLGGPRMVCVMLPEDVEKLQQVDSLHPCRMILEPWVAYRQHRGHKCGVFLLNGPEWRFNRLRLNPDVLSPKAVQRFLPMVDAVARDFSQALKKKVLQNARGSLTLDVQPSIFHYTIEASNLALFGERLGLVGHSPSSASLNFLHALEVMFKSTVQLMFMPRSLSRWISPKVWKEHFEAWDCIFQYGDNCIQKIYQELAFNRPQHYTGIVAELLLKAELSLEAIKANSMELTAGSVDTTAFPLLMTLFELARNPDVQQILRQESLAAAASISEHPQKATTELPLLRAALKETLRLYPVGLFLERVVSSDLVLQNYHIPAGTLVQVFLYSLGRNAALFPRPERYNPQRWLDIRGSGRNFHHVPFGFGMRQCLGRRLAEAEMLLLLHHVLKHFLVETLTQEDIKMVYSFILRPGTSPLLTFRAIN
Description: The human renal leiomyoma G402 cell line overexpressing human CYP11B2 was selected to serve as a compound activity screening system.
• 2) Compound details: The test compound was prepared as a 10 μM working concentration using DMSO.
Day 1: Cells were digested, and human renal leiomyoma G402 cells overexpressing human CYP11B2 were resuspended to 1×10^5 cells/mL, with 100 μL seeded into a 96-well plate.
Day 2: The medium was replaced with DMEM/F12 containing 2.5% charcoal-stripped fetal bovine serum; test compounds were added: 5 μL of test compound was added to the cell culture medium to achieve final concentrations of 10000, 2500, 625, 156.25, 39.06, 9.77, 2.44, 0.61, 0.15, and 0 nM (with a DMSO content of 0.1%).
After one hour, the substrate was added: 30 mM 11-deoxycorticosterone was diluted 1500-fold with culture medium, and 5 μL was dispensed per well to achieve a final concentration of […], followed by incubation for 16 hours.
Day 3: The cell supernatant was collected and added to 200 μL of a methanol solution containing internal standards (internal standards: 35 ng/mL ketoprofen or 7.5 ng/mL carbamazepine or 5 ng/mL diphenhydramine or 10 ng/mL tolbutamide). The mixture was vortexed and centrifuged (4000×g, 4° C., 5 minutes). Then, 100 μL of the supernatant was taken and mixed with 100 μL of pure water. The mixture was centrifuged (4000 g, 4° C., 15 min), and the supernatant was analyzed by ESI-LCMS/MS. • 4) Data analysis:
Ratio=Aldosterone peak area/Internal standard peak area
Control activity %=(Ratio test compound/Ratio DMSO)×100%
“Ratio test compound” represents the Ratio values at different concentrations of the test compound.
“Ratio DMSO” represents the Ratio value without the addition of the test compound. • X=Log (compound concentration) • Y=Control activity %
The IC50 of the test compound was determined by fitting to a nonlinear regression equation using XLfit 5.5.0.

[10] = test system: patients with refractory hypertension; conditions: cited from earlier work
[11] = cynomolgus monkey, plasma, oral 3 mg/kg
[12] = 2 mg dose, patients with refractory hypertension

bioavailability ([1]; rat, plasma): 80%
half-life ([1]; rat, plasma): 4.61 h
Cmax ([1]; rat, plasma): 7.63 µM
AUC(0-t) at 24 h ([1]; rat, plasma): 59.1 µM·h
fraction unbound at 4 h [2]: 0.239
bioavailability [3, 11]: 120%
half-life [3, 11]: 4.99 h
Cmax ([3]; cynomolgus monkey, oral 3 mg/kg, plasma): 4 µM
AUC(0-t) at 24 h ([3]; cynomolgus monkey, oral 3 mg/kg, plasma, read-out: AUC0-24 h): 23.2 µM·h
CLint scaled at 1 µM [4]: < 8.6 mL/min/kg
fraction unbound at 4 h [5]: 0.254
efflux ratio at 2.5 h, 2 µM [6]: 1.76
Papp A→B at 2.5 h, 2 µM [6]: 17.2 ×10⁻⁶ cm/s
fraction unbound at 4 h [7]: 0.079
SMILES: CCC(=O)N[C@@H]1CCCc2c(-c3ccc4c(ccc(=O)n4C)c3)cncc21 (single isomer, unassigned) [Compound 001]

fraction unbound at 4 h [2]: 0.151
CLint scaled at 1 µM [4]: < 8.6 mL/min/kg
fraction unbound at 4 h [5]: 0.205
efflux ratio at 2.5 h, 2 µM [6]: 0.86
Papp A→B at 2.5 h, 2 µM [6]: 22.6 ×10⁻⁶ cm/s
SMILES: CCC(=O)NC1CCCc2c(-c3cc4c(cc3F)N(C)C(=O)CO4)cncc21 (single isomer, unassigned) [Compound 032]

SMILES: Cc1noc(C)c1C(=O)N[C@@H]1CCCc2c(-c3cc4ccc(=O)n(C)c4cc3F)cncc21 (single isomer, unassigned) [Compound 020]
Human plasma protein binding rate (%) (plasma protein [8]): 85.6%
Plasma protein binding rate (%) in cynomolgus monkeys (plasma protein [9]): 90.3%

IC50 (human CYP11B2): 62.7 nM
SMILES: CCC(=O)N[C@@H]1CCCc2c(-c3ccc4c(c3)c(C)cc(=O)n4C)cncc21 (single isomer, unassigned) [Compound 027]

SMILES: CCC(=O)NC1CCCc2c(-c3cc4ccc(=O)n(C)c4s3)cncc21 (single isomer, unassigned) [Compound 023]
F [1]: 109%
T1/2 [1]: 3.6 h
AUC0-24 h ([1]; plasma): 44.234 µM·h
Cmax ([1]; plasma): 6.92 µM
Human plasma protein binding rate (%) (plasma protein [8]): 69.6%
F ([3]; oral 1 mg/kg): 76.5%
T1/2 ([3]; oral 1 mg/kg): 4.80 h
AUC0-24 h ([3]; oral 1 mg/kg, plasma): 8.916 µM·h
Cmax ([3]; oral 1 mg/kg, plasma): 1.32 µM
Plasma protein binding rate (%) in cynomolgus monkeys (plasma protein [9]): 69.0%

fraction unbound at 4 h [2]: 0.193
CLint scaled at 1 µM [4]: < 8.6 mL/min/kg
fraction unbound at 4 h [5]: 0.203
efflux ratio at 2.5 h, 2 µM [6]: 0.89
Papp A→B at 2.5 h, 2 µM [6]: 20 ×10⁻⁶ cm/s
SMILES: CCC(=O)NC1CCCc2c(-c3cc(F)c4c(c3)OCC(=O)N4C)cncc21 (single isomer, unassigned) [Compound 031]

fraction unbound at 4 h [2]: 0.239
fraction unbound at 4 h [5]: 0.32
efflux ratio at 2.5 h, 2 µM [6]: 1.3
Papp A→B at 2.5 h, 2 µM [6]: 16.7 ×10⁻⁶ cm/s
SMILES: CCC(=O)NC1CCOc2c(-c3cc4ccc(=O)n(C)c4s3)cncc21 (single isomer, unassigned) [Compound 045]

SMILES: CCC(=O)N[C@@H]1CCCc2c(-c3ccc4c(c3)CCC(=O)N4C)cncc21 [Baxdrostat]
office systolic and diastolic blood pressure [10, 12]: efficacy in reducing office systolic and diastolic blood pressure
safety and tolerability [10, 12]: favorable safety and tolerability profiles
aldosterone secretion levels ([10]; clinical studies): dose-dependent reduction
blood pressure ([10]; clinical studies): dose-dependent reduction
blood pressure reduction ([10]; phase 2 trials): significant blood pressure reduction
cortisol levels ([10]; phase 2 trials): no impact on cortisol levels
elevated blood potassium ([10]; phase 2 trials): rare occurrence of elevated blood potassium
steroid precursor accumulation ([10]; phase 2 trials): absence of steroid precursor accumulation

bioavailability ([1]; rat, plasma): 111%
half-life ([1]; rat, plasma): 2.77 h
Cmax ([1]; rat, plasma): 1.31 µM
AUC(0-t) at 24 h ([1]; rat, plasma): 7.8 µM·h
fraction unbound at 4 h [2]: 0.106
fraction unbound at 4 h [5]: 0.127
efflux ratio at 2.5 h, 2 µM [6]: 0.7
Papp A→B at 2.5 h, 2 µM [6]: 23.1 ×10⁻⁶ cm/s
fraction unbound at 4 h [7]: 0.102
SMILES: CCC(=NOC)NC1CCCc2c(-c3ccc4c(c3)CCC(=O)N4C)cncc21 (single isomer, unassigned) [Compound 005]
